Data reported in publication PMC7587356, “High-Throughput Screening for Inhibitors of the SARS-CoV-2 Protease Using a FRET-Biosensor” (Molecules, 2020).
Where a name gives a salt, the structure may show the parent alone. Read-outs that look alike come from different tables or passages of the source.

Biological target: SARS-CoV-2 3CLpro (Severe acute respiratory syndrome coronavirus 2, UniProt P0DTD1)
Test: biochemical
Type: biochemical
Design: Replicate_1 / Replicate_2 / mean / mean (LOPAC_screen_w_protease): unit not given here
Conditions: for inhibition at 5 µM: 4 h
[1] = sheet LOPAC_screen_w_protease, primary screen with protease, compound at 5 µM, mean of two replicates
[2] = sheet LOPAC_screen_w_protease, primary screen with protease, compound at 5 µM, replicate 1
[3] = sheet LOPAC_screen_w_protease, primary screen with protease, compound at 5 µM, replicate 2
[4] = LOPAC1280 primary screen with protease, 5 µM compound, replicate 1, read-out: Replicate_1 (LOPAC_screen_w_protease)
[5] = LOPAC1280 primary screen with protease, 5 µM compound, replicate 2, read-out: Replicate_2 (LOPAC_screen_w_protease)
[6] = LOPAC1280 primary screen with protease, 5 µM compound, mean of the two replicates
[7] = sheet LOPAC_screen_w_protease, primary screen of LOPAC1280 at 5 µM with protease, mean of the two replicates, read-out: mean
[8] = sheet LOPAC_screen_w_protease, primary screen of LOPAC1280 at 5 µM with protease, replicate 1, read-out: Replicate_1
[9] = sheet LOPAC_screen_w_protease, primary screen of LOPAC1280 at 5 µM with protease, replicate 2, read-out: Replicate_2
[10] = sheet LOPAC_screen_w_protease, primary screen with protease, compound at 5 µM, mean of two replicates, read-out: mean
[11] = sheet LOPAC_screen_w_protease, primary screen with protease, compound at 5 µM, replicate 1, read-out: Replicate_1
[12] = sheet LOPAC_screen_w_protease, primary screen with protease, compound at 5 µM, replicate 2, read-out: Replicate_2
[13] = read-out: Replicate_1 (LOPAC screen with protease)
[14] = read-out: Replicate_2 (LOPAC screen with protease)
[15] = read-out: mean (LOPAC screen with protease)
[16] = LOPAC1280 primary screen with protease, 5 µM compound, mean of two replicates
[17] = sheet LOPAC_screen_w_protease, primary screen with protease, 5 µM, mean of two replicates
[18] = sheet LOPAC_screen_w_protease, primary screen with protease, 5 µM, replicate 1
[19] = sheet LOPAC_screen_w_protease, primary screen with protease, 5 µM, replicate 2
[20] = sheet LOPAC_screen_w_protease, primary screen with protease, mean of two replicates, read-out: mean
[21] = sheet LOPAC_screen_w_protease, primary screen with protease, replicate 1, read-out: Replicate_1
[22] = sheet LOPAC_screen_w_protease, primary screen with protease, replicate 2, read-out: Replicate_2
[23] = sheet LOPAC_screen_w_protease, LOPAC1280 primary screen at 5 µM, with protease, mean of the two replicates, read-out: mean
[24] = sheet LOPAC_screen_w_protease, LOPAC1280 primary screen at 5 µM, with protease, replicate 1, read-out: Replicate_1
[25] = sheet LOPAC_screen_w_protease, LOPAC1280 primary screen at 5 µM, with protease, replicate 2, read-out: Replicate_2

Compound `CC(C)[C@@]1(NC(=O)[C@@H]2C[C@@H]3c4cccc5[nH]cc(c45)C[C@H]3N(C)C2)O[C@@]2(O)[C@@H]3CCCN3C(=O)[C@H](Cc3ccccc3)N2C1=O.CS(=O)(=O)O` [Dihydroergocristine methanesulfonate] has a mean [1] of 2.761, a Replicate_1 [2] of 2.962 and a Replicate_2 [3] of 2.561.

With `CN1C[C@H](C(=O)N[C@]2(C)O[C@@]3(O)[C@@H]4CCCN4C(=O)[C@H](Cc4ccccc4)N3C2=O)C[C@@H]2c3cccc4[nH]cc(c34)C[C@H]21` [Dihydroergotamine methanesulfonate] the inhibition at 5 µM [4] was 2.09%, the inhibition at 5 µM [5] was 1.52% and the “mean (LOPAC_screen_w_protease)” value [6] was 1.805.

`CC(C)[C@H]1CN[C@H](C(=O)O)[C@H]1CC(=O)O` [Dihydrokainic acid] gave a mean (sheet LOPAC_screen_w_protease, LOPAC1280 primary screen at 5 µM, with protease, mean of the two replicates) of 0.7305, a Replicate_1 (sheet LOPAC_screen_w_protease, LOPAC1280 primary screen at 5 µM, with protease, replicate 1) of 1.689 and a Replicate_2 (sheet LOPAC_screen_w_protease, LOPAC1280 primary screen at 5 µM, with protease, replicate 2) of -0.2284.

`C[C@@H]1O[C@@H](O[C@H]2C[C@@H](O)[C@]3(CO)[C@H]4[C@H](O)C[C@]5(C)[C@@H]([C@@H]6COC(=O)C6)CC[C@]5(O)[C@@H]4CC[C@]3(O)C2)[C@H](O)[C@H](O)[C@H]1O` [Dihydroouabain] showed a mean (sheet LOPAC_screen_w_protease, primary screen of LOPAC1280 at 5 µM with protease, mean of the two replicates) of 3.947, a Replicate_1 (sheet LOPAC_screen_w_protease, primary screen of LOPAC1280 at 5 µM with protease, replicate 1) of 5.984 and a Replicate_2 (sheet LOPAC_screen_w_protease, primary screen of LOPAC1280 at 5 µM with protease, replicate 2) of 1.91.

With `COc1cc(C(=O)OCCCN2CCCN(CCCOC(=O)c3cc(OC)c(OC)c(OC)c3)CC2)cc(OC)c1OC` [Dilazep hydrochloride] the inhibition at 5 µM [7] was 3.29%, the inhibition at 5 µM [8] was 2.23% and the inhibition at 5 µM [9] was 4.35%.

In the case of `CN(C)CCOC(c1ccccc1)c1ccccc1` [Diphenhydramine hydrochloride], the inhibition at 5 µM [4] is reported as 2.14%, the inhibition at 5 µM [5] is reported as 1.54% and the “mean (LOPAC_screen_w_protease)” value [6] is reported as 1.841.

Work on `c1ccc2c(c1)[I+]c1ccccc1-2` [Diphenyleneiodonium chloride] yielded an inhibition at 5 µM (read-out: Replicate_1) of 3.49%, an inhibition at 5 µM (read-out: Replicate_2) of 2.49% and an inhibition at 5 µM (read-out: mean) of 2.99%.

For `CCCN(CCC)CCc1ccc(O)c(O)c1` [Dipropyldopamine hydrobromide], the inhibition at 5 µM [4] was 3.8%, the inhibition at 5 µM [5] was 0.246% and the “mean (LOPAC_screen_w_protease)” value [6] was 2.021.

Compound `CC(C)N(CCC(C(N)=O)(c1ccccc1)c1ccccn1)C(C)C` (stereo not drawn) [Disopyramide phosphate] has an inhibition at 5 µM [10] of 2.74%, an inhibition at 5 µM [11] of 4.07% and an inhibition at 5 µM [12] of 1.41%.

`CC(C)N(CCC(C(N)=O)(c1ccccc1)c1ccccn1)C(C)C` (stereo not drawn) [Disopyramide] gave an inhibition at 5 µM [7] of 3.48%, an inhibition at 5 µM [8] of 4.56% and an inhibition at 5 µM [9] of 2.4%.

With `CC(CCc1ccc(O)cc1)NCCc1ccc(O)c(O)c1` (stereo not drawn) [Dobutamine hydrochloride] the inhibition at 5 µM [4] was 2.05%, the inhibition at 5 µM [5] was 2.06% and the “mean (LOPAC_screen_w_protease)” value [6] was 2.053.

`NCCc1ccc(O)c(O)c1` [Dopamine hydrochloride] was tested, and the inhibition at 5 µM [13] was 16.2%, the inhibition at 5 µM [14] was 14.6% and the inhibition at 5 µM [15] was 15.4%.

With `COc1cc2nc(N3CCN(C(=O)C4COc5ccccc5O4)CC3)nc(N)c2cc1OC` (stereo not drawn) [Doxazosin mesylate] the inhibition at 5 µM [4] was 3.96%, the inhibition at 5 µM [5] was -0.00681% and the “mean (LOPAC_screen_w_protease)” value [6] was 1.977.

`CN(C)CCC=C1c2ccccc2COc2ccccc21` [Doxepin hydrochloride] was tested, and the inhibition at 5 µM [4] was 1.2%, the inhibition at 5 µM [5] was 1.88% and the “mean (LOPAC_screen_w_protease)” value [16] was 1.543.

With `C[C@H]1c2cccc(O)c2C(=O)C2=C(O)[C@]3(O)C(=O)C(C(N)=O)=C(O)[C@@H](N(C)C)[C@@H]3[C@@H](O)[C@@H]21` [Doxycycline hydrochloride] the inhibition at 5 µM (sheet LOPAC_screen_w_protease, LOPAC1280 primary screen with protease, 5 µM compound, mean of the two replicates, read-out: mean) was 4.21%, the inhibition at 5 µM (sheet LOPAC_screen_w_protease, LOPAC1280 primary screen with protease, 5 µM compound, replicate 1, read-out: Replicate_1) was 5.78% and the inhibition at 5 µM (sheet LOPAC_screen_w_protease, LOPAC1280 primary screen with protease, 5 µM compound, replicate 2, read-out: Replicate_2) was 2.65%.

For `CN(C)CCOC(C)(c1ccccc1)c1ccccn1` (stereo not drawn) [Doxylamine succinate], the inhibition at 5 µM (sheet LOPAC_screen_w_protease, LOPAC1280 at 5 µM, mean of two replicates, read-out: mean) was 1.3%, the inhibition at 5 µM (sheet LOPAC_screen_w_protease, LOPAC1280 at 5 µM, replicate 1, read-out: Replicate_1) was 1.58% and the inhibition at 5 µM (sheet LOPAC_screen_w_protease, LOPAC1280 at 5 µM, replicate 2, read-out: Replicate_2) was 1.01%.

`COc1c2c(nc3ccccc13)OC(C(C)(O)CO)C2` (stereo not drawn) [Dubinidine] showed a mean [1] of 2.93, a Replicate_1 [2] of 4.833 and a Replicate_2 [3] of 1.026.

`CC(C)CC(NC(=O)C1OC1C(=O)O)C(=O)NCCCCNC(=N)N` (stereo not drawn) [E-64] was tested, and the mean [17] was 0.2813, the Replicate_1 [18] was 1.4489 and the Replicate_2 [19] was -0.8864.

With `CCCCCCCCCCCCCCCCCCOCC(COP(=O)([O-])OCC[N+](C)(C)C)OC` (stereo not drawn) [ET-18-OCH3] the “mean (LOPAC_screen_w_protease)” value [16] was 1.443, the “Replicate_1 (LOPAC_screen_w_protease)” value (LOPAC1280 primary screen with protease, 5 µM compound, replicate 1) was 1.735 and the “Replicate_2 (LOPAC_screen_w_protease)” value (LOPAC1280 primary screen with protease, 5 µM compound, replicate 2) was 1.151.

For `O=c1c2ccccc2[se]n1-c1ccccc1` [Ebselen, reference compound], the inhibition at 5 µM [13] was 105%, the inhibition at 5 µM [14] was 102% and the inhibition at 5 µM [15] was 103%.

For `CC[N+](C)(C)c1cccc(O)c1` [Edrophonium chloride], the inhibition at 5 µM [20] was 2.25%, the inhibition at 5 µM [21] was 5.19% and the inhibition at 5 µM [22] was -0.704%.

`CCC1(C2=NCCN2)Cc2ccccc2O1` (stereo not drawn) [Efaroxan hydrochloride] was tested, and the inhibition at 5 µM [23] was 0.692%, the inhibition at 5 µM [24] was 2.34% and the inhibition at 5 µM [25] was -0.954%.

`OC(CN1CCC(Cc2ccc(F)cc2)CC1)c1ccc(Cl)cc1` (stereo not drawn) [Eliprodil] showed an inhibition at 5 µM [10] of 2.62%, an inhibition at 5 µM [11] of 2.73% and an inhibition at 5 µM [12] of 2.52%.

`Cc1c2ccncc2c(C)c2c1[nH]c1ccccc12` [Ellipticine] showed an inhibition at 5 µM [20] of 2.32%, an inhibition at 5 µM [21] of 4.78% and an inhibition at 5 µM [22] of -0.147%.

Compound `Cc1cc(O)c2c(c1)C(=O)c1cc(O)cc(O)c1C2=O` [Emodin] has an inhibition at 5 µM [13] of 10.9%, an inhibition at 5 µM [14] of 5.72% and an inhibition at 5 µM [15] of 8.32%.

`O=C(O)[C@@H]1[C@H](C(=O)O)[C@H]2CC[C@@H]1O2` [Endothall] gave an inhibition at 5 µM (read-out: Replicate_1) of 3.42%, an inhibition at 5 µM (read-out: Replicate_2) of -0.805% and an inhibition at 5 µM (read-out: mean) of 1.31%.

In the case of `CSc1ccc(C(=O)c2[nH]c(=O)[nH]c2C)cc1` [Enoximone], the inhibition at 5 µM [13] is reported as 7.98%, the inhibition at 5 µM [14] is reported as 10% and the inhibition at 5 µM [15] is reported as 9.01%.

In the case of `CC(C)C[C@H](NC(=O)[C@H](O)[C@H](N)Cc1ccccc1)C(=O)O` [Epibestatin hydrochloride], the inhibition at 5 µM [4] is reported as 1.71%, the inhibition at 5 µM [5] is reported as 2.3% and the “mean (LOPAC_screen_w_protease)” value [6] is reported as 2.008.

Compound `CC(C)[C@@]1(NC(=O)[C@@H]2C=C3c4cccc5[nH]cc(c45)C[C@H]3N(C)C2)O[C@@]2(O)[C@@H]3CCCN3C(=O)[C@H](Cc3ccccc3)N2C1=O` [Ergocristine] has an inhibition at 5 µM (read-out: Replicate_1) of 4.04%, an inhibition at 5 µM (read-out: Replicate_2) of 2.86% and an inhibition at 5 µM (read-out: mean) of 3.45%.

With `CCOC(=O)c1cnc2c(cnn2CC)c1NN=C(C)C` [Etazolate hydrochloride] the inhibition at 5 µM (sheet LOPAC_screen_w_protease, primary screen at 5 µM, mean of two replicates, read-out: mean (LOPAC screen with protease)) was 6.78%, the inhibition at 5 µM (sheet LOPAC_screen_w_protease, primary screen at 5 µM, replicate 1, read-out: Replicate_1 (LOPAC screen with protease)) was 5.91% and the inhibition at 5 µM (sheet LOPAC_screen_w_protease, primary screen at 5 µM, replicate 2, read-out: Replicate_2 (LOPAC screen with protease)) was 7.65%.

For `CCC1(C)CC(=O)NC1=O` (stereo not drawn) [Ethosuximide], the inhibition at 5 µM [4] was 4.21%, the inhibition at 5 µM [5] was -0.21% and the “mean (LOPAC_screen_w_protease)” value [6] was 1.998.

`CCc1cccc2c3c([nH]c12)C(CC)(CC(=O)O)OCC3` (stereo not drawn) [Etodolac] gave an inhibition at 5 µM [23] of 0.659%, an inhibition at 5 µM [24] of 1.48% and an inhibition at 5 µM [25] of -0.164%.

`COC(=O)c1c(C)[nH]c(C)c1C(=O)c1ccccc1Cc1ccccc1` [FPL 64176] showed a mean [17] of 0.1984, a Replicate_1 [18] of 1.679 and a Replicate_2 [19] of -1.282.

In the case of `CCCn1c(=O)c2[nH]c(C3CCCC3)nc2n(CCCOC(=O)c2ccc(S(=O)(=O)F)cc2)c1=O` [FSCPX], the “mean (LOPAC screen with protease)” value (sheet LOPAC_screen_w_protease, primary screen at 5 µM, mean of two replicates) is reported as 6.832, the “Replicate_1 (LOPAC screen with protease)” value (sheet LOPAC_screen_w_protease, primary screen at 5 µM, replicate 1) is reported as 8.115 and the “Replicate_2 (LOPAC screen with protease)” value (sheet LOPAC_screen_w_protease, primary screen at 5 µM, replicate 2) is reported as 5.548.
